Assay results as given in patent US20210205329A1 (The University of North Carolina at Chapel Hill, priority 2018, published 2021).

Tested on: RAW264.7 cells
Assay: Non-activated RAW264.7 cells in the absence of LPS (immunoblotting)
Format: cell-based, mouse
Details: 1 μM, 24 hrs
Method: FIGS. 3A and 3B depict neurosteroids targeting the activated TLR4 signal by inhibiting TLR4/MD-2 binding. (FIG. 3A) 3α,5α-THP and pregnenolone specifically target the activated TLR4 signal. RAW264.7 cells untreated (CTL) or treated with 3α,5α-THP (THP; 1 μM) or pregnenolone (Preg; 1 μM) were harvested after 24 hrs. […] (FIG. 3B) Neurosteroids inhibit TLR4 signal activation in RAW264.7 ceils by blocking TLR4/MD-2 binding. RAW246.7 cells were treated with IPS (1 μg/ml) without or with 3α,5α-THP (THP; 1.0 μM) or pregnenolone (Preg; 1.0 μM) and protein extracts collected at 24 hrs post-treatment were immunoprecipitated (IP) with antibody to TLR4 or TLR2. The precipitates were immunoblotted (IB) with MD-2 antibody. Normal IgG was used as control. MD-2 co-precipitated with TLR4, but not normal IgG. […] HMGB1 co-precipitated with both TLR4 and TLR2 and its levels were not altered by the neurosteroids.
Immunoblotting. […] The total protein was determined by the bicinchoninic acid assay (BCA, Thermo Fisher Scientific, Waltham, Mass., USA, Cat. #23228 and Cat. #1859078). […] Quantitation was by densitometric scanning with a Bio-Rad GS-700 imaging densitometer. […] Each densitometric measurement was divided by the corresponding β-Actin densitometric measurement and the results [n=5/group] are expressed as the mean β-Actin-adjusted densitometric units±SEM. […]

Compound | expression of pTAK1, TRAF6, and MCP1 in non-activated cells
CC(=O)[C@H]1CC[C@H]2[C@@H]3CC[C@H]4C[C@H](O)CC[C@]4(C)[C@H]3CC[C@]12C [3α,5α-THP, (3α,5α)3-hydroxypregnan-20-one] | failed to inhibit
CC(=O)[C@H]1CC[C@H]2[C@@H]3CC=C4C[C@@H](O)CC[C@]4(C)[C@H]3CC[C@]12C [pregnenolone] | failed to inhibit
